Key:
[1] = test system: HEK293 (human normal embryonic kidney); assay: Cell proliferation inhibition, Cell Titer-Glo, HEK293; format: cell-based; details: cell proliferation assay, HEK293 cells, read-out: HEK 293 IC50
How it was run: (§1)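 Cells seeded at 2500-5000 per well with serially diluted compound for typically 3 days. Viable cells measured by ATP luminescence (Cell Titer-Glo); IC50 from proliferation-inhibition curves.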

InsR = target: T1, InsR (Homo sapiens, UniProt P06213); assay: Tyrosine kinase assay (Kinase-Glo or AlphaScreen), InsR; details: biochemical tyrosine kinase assay
T1 construct: 6×His- or GST-tagged kinase domain fragments of the corresponding RTKs expressed in baculovirus system; host or cells: baculovirus system
T1 sequence (P06213 1023-1298 limits assumed, species assumed): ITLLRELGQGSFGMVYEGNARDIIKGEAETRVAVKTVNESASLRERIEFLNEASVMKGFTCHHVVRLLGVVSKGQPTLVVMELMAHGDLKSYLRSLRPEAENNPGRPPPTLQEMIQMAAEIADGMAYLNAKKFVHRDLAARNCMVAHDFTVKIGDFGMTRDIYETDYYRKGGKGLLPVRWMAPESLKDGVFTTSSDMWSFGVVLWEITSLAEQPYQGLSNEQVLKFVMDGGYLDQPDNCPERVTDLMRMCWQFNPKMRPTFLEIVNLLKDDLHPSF
How it was run: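 Test compounds, eight concentrations from 1 nM to 20 μM, were incubated with tagged recombinant kinase domain, poly(Glu-Tyr, 4:1) and 10 μM ATP. After 60 minutes at 37° C, Kinase-Glo luminescence quantified unconsumed ATP.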

TrkA = target: T2, TrkA (Homo sapiens, UniProt P04629); assay: Tyrosine kinase assay (Kinase-Glo or AlphaScreen), TrkA; details: biochemical tyrosine kinase assay
T2 construct: 6×His- or GST-tagged kinase domain fragments of the corresponding RTKs expressed in baculovirus system; host or cells: baculovirus system
T2 sequence (P04629 510-781 limits assumed, species assumed): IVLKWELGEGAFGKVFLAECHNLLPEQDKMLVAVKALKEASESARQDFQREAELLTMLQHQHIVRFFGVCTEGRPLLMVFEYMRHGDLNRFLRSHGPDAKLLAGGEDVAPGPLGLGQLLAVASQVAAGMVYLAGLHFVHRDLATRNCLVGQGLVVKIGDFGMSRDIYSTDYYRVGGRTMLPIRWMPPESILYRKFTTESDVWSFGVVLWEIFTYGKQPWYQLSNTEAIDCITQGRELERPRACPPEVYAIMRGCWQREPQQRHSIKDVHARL
Protocol: To determine inhibition of several tyrosine kinases, such as IGF1R, InsR, Alk, TrkA and Jak2, kinase assays are conducted using either Kinase-Glo (Promega) or AlphaScreen (PerkinElmer) kinase assay platforms. The Kinase-Glo Luminescent Kinase Assay is a homogeneous method for measuring kinase activity by determining the amount of ATP remaining after a kinase reaction. The luminescent signal is proportional to the amount of ATP and inversely proportional to the amount of kinase activity. Tyrosine kinase PT66 AlphaScreen Assay is a high-sensitivity homogeneous, anti-phosphotyrosine antibody-mediated luminescent proximity method measuring, incorporation of phosphate in synthetic poly(Glu-Tyr) substrate. The kinase preparations used consist of purified recombinant, 6×His- or GST-tagged kinase domain fragments of the corresponding RTKs expressed in baculovirus system.
The IGF1R tyrosine kinase is assayed in Kinase-Glo ATP depletion assay using the synthetic polymer poly(Glu-Tyr, 4:1) (Sigma Chemicals) as a phosphoacceptor substrate. Each reaction mixture consists of a total volume of 10 μl and contains 40 ng of the enzyme, 5 μg of poly(Glu-Tyr), 10 μM of ATP and variable concentrations of test compounds. The mixtures also contain 50 mM Tris-HCl, pH 7.5; 5 mM MgCl2; 5 mM MnCl2; 2 mM DTT and 0.01% Tween 20. The reaction mixtures are incubated at 37° C. for 60 minutes and residual concentration of ATP in the mixture is determined by adding luciferase-containing Kinase-Glo (Promega) development reagent and counting luminescence levels using Fusion Universal Microplate Analyzer (PerkinElmer). Tested compounds are dissolved in dimethyl sulfoxide to a stock concentration of 10 mM and are typically evaluated in the assay at eight concentrations in 1 nM to 20 μM range, each in quadruplicate. […] IC50 values are derived by non-linear regression analysis using Prism 3.0 software (Graphpad Software). Other tyrosine kinases are assayed according to the same protocol after titrating amount of the enzyme to provide optimal signal-to-noise ratio and no more than 30% of total ATP consumption in the reaction conditions used.
The IGF1R tyrosine kinase is assayed in Phosphotyrosine (PT66 or PT 100) AlphaScreen chemiluminescent assay (PerkinElmer) according to the manufacturerer's recommendations. Each kinase reaction mixture consists of a total volume of 15 μl and contains 0.1-1 ng of the enzyme, 7 ng of biotinylated poly(Glu-Tyr) (Cis-Bio), 10 μM of ATP and variable concentrations of test compounds. The mixtures also contain 50 mM Tris-HCl, pH 7.5; 5 mM MgCl2; 5 mM MnCl2; 2 mM DTT and 0.01% Tween 20. The reaction mixtures are incubated at room temperature for 30 minutes. Ten (10) μl of the mixture of […] and donor beads (as supplied by the manufacturer) is then added to the reaction and the incubation is continued for an additional 60 minutes.

[2] = test system: CHO (chinese hamster ovary); assay: Cell proliferation inhibition, Cell Titer-Glo, CHO; format: cell-based; details: Cricetulus griseus; cell proliferation assay, CHO cells
How it was run: as §1

IC50 (InsR) [µM] | IC50 (TrkA) [µM] | Structure (SMILES) | IC50 [1] [µM] | IC50 [2] [µM]
0.5 to 5 | < 0.5 | Cc1ccc2c(ccn2C[C@H](O)CNc2cc[nH]c(=O)c2-c2nc3cc4c(cc3[nH]2)C(=O)N(C2CCN(C)CC2)C4=O)c1 [compound 131] | 0.5 to 5 | 5 to 15
< 0.5 | < 0.5 | Cc1ccc(OCC(O)CNc2cc[nH]c(=O)c2-c2nc3cc4c(cc3[nH]2)C(=O)N(C2CCN(C)CC2)C4=O)c(C)c1 (stereo not shown) [compound 15] | 5 to 15 | 

— patent US8063225B2, “Tricyclic compound derivatives useful in the treatment of neoplastic diseases, inflammatory disorders and immunomodulatory disorders” (Chembridge Corporation, priority 2006, dated 2011)
